# Measured values taken from patent US20240041769A1, “COMPOSITIONS AND METHODS FOR DELIVERY OF ANTICANCER AGENTS WITH IMPROVED THERAPEUTIC INDEX” (NanoTech Pharma Inc., priority 2020, published 2024).
# Legend:
# [1] = In-vivo pharmacokinetic study, intravenous; set-up: species or system BALB/c nude mice; conditions: mice, free drug solutions
# Experimental: In-vivo pharmacokinetic study of free afatinib and nintedanib combination (data not shown), and AFA/NIN-L (1:5 AFA:NIN molar ratio) were carried out in BALB/c nude mice. The preparation of the PEGylated AFA/NIN-L with TEA-SOS used as the trapping agent was described in the Experimental Method section. The mixture of afatinib and nintedanib free drug cocktail and PEGylated AFA/NIN-L with a molar ratio of 1:5 were administered intravenously via the tail vein into the mice and the plasma concentration of both AFA and NIN was monitored over time. Doses of the all drug formulations were 7.0 mg/kg of afatinib free base (10.3 mg/kg afatinib dimaleate) and 38.9 mg/kg of nintedanib free base (46.8 mg/kg nintedanib […]). After intravenous administration, blood was collected at multiple time points by cardiac puncture (3 mice per time point) and placed into EDTA coated micro containers. The samples were centrifuged to separate plasma, and plasma was transferred to another tube. Then, AFA and NIN plasma levels were quantified with LC-MS. PK parameters were then calculated from measured AFA and NIN plasma levels.
# [2] = clinical studies, oral afatinib; cited from earlier work
SMILES,elimination after IV administration [1],treatment-related grade ≥3 AE: diarrhea [2],treatment-related grade ≥3 AE: rash/acne [2],treatment-related grade ≥3 AE: stomatitis/mucositis [2]
"CN(C)C/C=C/C(=O)Nc1cc2c(Nc3ccc(F)c(Cl)c3)ncnc2cc1O[C@H]1CCOC1 [AFA, Afatinib]",rapidly eliminated,5.4-14.4%,9.7-16.2%,5.4-8.7%
"COC(=O)c1ccc2c(c1)NC(=O)/C2=C(\Nc1ccc(N(C)C(=O)CN2CCN(C)CC2)cc1)c1ccccc1 [NIN, Nintedanib]",rapidly eliminated,–,–,–
